ChEMBL document CHEMBL1201862, “PubChem BioAssay data set” (2004)
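Assay format: 96-well plates, 48-hour exposure. At the GI50, growth is halved.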 The source made the active and inactive calls. Rule as the data show it: active = GI50 up to about 1.1 µM and inactive = higher.

Columns and labels:
Assay in all cases: growth of human tumour cells (NCI), 48 h
[1] = test system: COLO 205
[2] = test system: A549
[3] = test system: IGROV-1
[4] = test system: A498
[5] = test system: EKVX
[6] = test system: UACC-257
[7] = test system: SF-268
[8] = test system: SNB-19
[9] = test system: U-251
[10] = test system: HCT-15
[11] = test system: RPMI-8226
[12] = test system: Hs-578T
[13] = test system: HCC 2998
[14] = test system: SK-MEL-2
[15] = test system: PC-3
[16] = test system: Malme-3M
[17] = test system: HOP-62
[18] = test system: T47D
[19] = test system: OVCAR-4

For `CN1C(=O)N(C)C(O)C(Cl)(Br)C1=O` (stereo unspecified), the GI50 [1] was > 100 µM (inactive), the GI50 [2] was > 100 µM (inactive) and the GI50 [3] was > 100 µM (inactive). For the same compound, the GI50 [4] was > 100 µM (inactive), the GI50 [5] was > 100 µM (inactive) and the GI50 [6] was > 100 µM (inactive). For the same compound, the GI50 [7] was > 100 µM (inactive), the GI50 [8] was > 100 µM (inactive) and the GI50 [9] was > 100 µM (inactive). For the same compound, the GI50 [10] was > 100 µM, the GI50 [11] was > 100 µM (inactive) and the GI50 [12] was > 100 µM (inactive). For the same compound, the GI50 [13] was > 100 µM (inactive), the GI50 [14] was > 100 µM (inactive) and the GI50 [15] was > 100 µM (inactive). For the same compound, the GI50 [16] was > 100 µM (inactive).

With `COC(=O)[C@H]1COC(=O)N1` the GI50 [1] was > 100 µM (inactive), the GI50 [2] was > 100 µM (inactive) and the GI50 [3] was > 100 µM (inactive). For the same compound, the GI50 [4] was > 100 µM (inactive), the GI50 [5] was > 100 µM (inactive) and the GI50 [6] was > 100 µM (inactive). The GI50 [7] was > 100 µM (inactive), the GI50 [17] was > 100 µM (inactive) and the GI50 [8] was > 100 µM (inactive). The GI50 [9] was > 100 µM (inactive), the GI50 [10] was > 100 µM and the GI50 [18] was > 100 µM (inactive). For the same compound, the GI50 [19] was > 100 µM (inactive), the GI50 [12] was > 100 µM (inactive) and the GI50 [13] was > 100 µM (inactive). The GI50 [14] was > 100 µM (inactive) and the GI50 [16] was > 100 µM (inactive).

`CC(Br)C(=O)c1ccc2cc(Br)c3ccccc3c2c1` (stereo unspecified) was tested, and the GI50 [2] was 20 µM (inactive), the GI50 [3] was 13.1 µM (inactive) and the GI50 [4] was 18.7 µM (inactive). The GI50 [5] was 14.4 µM (inactive), the GI50 [6] was 16.9 µM (inactive) and the GI50 [7] was 16.3 µM (inactive). For the same compound, the GI50 [17] was 17.2 µM (inactive), the GI50 [8] was 17.4 µM (inactive) and the GI50 [9] was 13.7 µM (inactive). The GI50 [10] was 16.6 µM, the GI50 [11] was 4.65 µM (inactive) and the GI50 [18] was 11.9 µM (inactive). For the same compound, the GI50 [19] was 16.7 µM (inactive), the GI50 [12] was 23.1 µM (inactive) and the GI50 [13] was 15.7 µM (inactive). The GI50 [14] was 13.2 µM (inactive) and the GI50 [16] was 15.1 µM (inactive).

With `Nc1nc(O)c([I+]c2ccccc2)c(=O)[nH]1` the GI50 [1] was > 100 µM (inactive), the GI50 [2] was > 100 µM (inactive) and the GI50 [3] was > 100 µM (inactive). For the same compound, the GI50 [4] was > 100 µM (inactive), the GI50 [5] was > 100 µM (inactive) and the GI50 [6] was > 100 µM (inactive). The GI50 [7] was > 100 µM (inactive), the GI50 [17] was > 100 µM (inactive) and the GI50 [8] was > 100 µM (inactive). The GI50 [9] was > 100 µM (inactive), the GI50 [10] was > 100 µM and the GI50 [11] was > 100 µM (inactive). The GI50 [19] was > 100 µM (inactive), the GI50 [12] was > 100 µM (inactive) and the GI50 [13] was > 100 µM (inactive). For the same compound, the GI50 [15] was > 100 µM (inactive) and the GI50 [16] was > 100 µM (inactive).

With `COC(=O)C(Cc1c[nH]c2ccccc12)NP(=O)(O)OCC1OC(n2cc(I)c(=O)[nH]c2=O)CC1O` (stereo unspecified) the GI50 [1] was > 100 µM (inactive), the GI50 [2] was > 100 µM (inactive) and the GI50 [3] was > 100 µM (inactive). The GI50 [4] was > 100 µM (inactive), the GI50 [5] was > 100 µM (inactive) and the GI50 [6] was > 100 µM (inactive). For the same compound, the GI50 [7] was > 100 µM (inactive), the GI50 [17] was > 100 µM (inactive) and the GI50 [8] was > 100 µM (inactive). For the same compound, the GI50 [9] was > 100 µM (inactive), the GI50 [10] was > 100 µM and the GI50 [11] was > 100 µM (inactive). For the same compound, the GI50 [18] was > 100 µM (inactive), the GI50 [19] was > 100 µM (inactive) and the GI50 [12] was > 100 µM (inactive). For the same compound, the GI50 [15] was > 100 µM (inactive) and the GI50 [16] was > 100 µM (inactive).

With `NC(=O)/C(=C\c1ccncc1)c1cccc2ccccc12` the GI50 [1] was 50.5 µM (inactive), the GI50 [2] was > 100 µM (inactive) and the GI50 [3] was > 100 µM (inactive). The GI50 [5] was > 100 µM (inactive), the GI50 [6] was < 0.01 µM (active) and the GI50 [7] was > 100 µM (inactive). For the same compound, the GI50 [17] was > 100 µM (inactive), the GI50 [8] was > 100 µM (inactive) and the GI50 [9] was > 100 µM (inactive). For the same compound, the GI50 [10] was > 100 µM, the GI50 [11] was > 100 µM (inactive) and the GI50 [18] was > 100 µM (inactive). For the same compound, the GI50 [19] was > 100 µM (inactive), the GI50 [12] was > 100 µM (inactive) and the GI50 [14] was > 100 µM (inactive). The GI50 [15] was > 100 µM (inactive) and the GI50 [16] was > 100 µM (inactive).

For `CCCCCCOc1ccc(C(=O)NOCc2ccccc2)cc1`, the GI50 [1] was > 100 µM (inactive), the GI50 [2] was > 100 µM (inactive) and the GI50 [3] was > 100 µM (inactive). The GI50 [4] was > 100 µM (inactive), the GI50 [5] was > 100 µM (inactive) and the GI50 [6] was > 100 µM (inactive). The GI50 [7] was > 100 µM (inactive), the GI50 [17] was > 100 µM (inactive) and the GI50 [8] was > 100 µM (inactive). The GI50 [9] was > 100 µM (inactive), the GI50 [10] was 63.8 µM and the GI50 [11] was 42.2 µM (inactive). For the same compound, the GI50 [19] was > 100 µM (inactive), the GI50 [12] was > 100 µM (inactive) and the GI50 [13] was > 100 µM (inactive). For the same compound, the GI50 [14] was > 100 µM (inactive) and the GI50 [15] was > 100 µM (inactive).

In the case of `COc1cccc(C(=O)O[C@H]2[C@@H]3[C@]4(OC(C)=O)CO[C@@H]4C[C@H](O)[C@@]3(C)C(=O)[C@H](OC(C)=O)C3=C(C)[C@@H](OC(=O)[C@H](O)[C@@H](NC(=O)OC(C)(C)C)c4ccco4)C[C@]2(O)C3(C)C)c1`, the GI50 [1] is reported as < 0.00375 µM (active), the GI50 [2] is reported as < 0.00375 µM (active) and the GI50 [3] is reported as < 0.00375 µM (active). The GI50 [5] was 0.173 µM (active), the GI50 [6] was 21.3 µM (inactive) and the GI50 [7] was < 0.00375 µM (active). The GI50 [17] was < 0.00375 µM (active), the GI50 [8] was 0.133 µM (active) and the GI50 [9] was < 0.00375 µM (active). The GI50 [10] was < 0.00375 µM, the GI50 [11] was < 0.00375 µM (active) and the GI50 [19] was 6.32 µM (inactive). The GI50 [12] was < 0.00375 µM (active), the GI50 [13] was < 0.00375 µM (active) and the GI50 [14] was < 0.00375 µM (active). For the same compound, the GI50 [15] was < 0.00375 µM (active) and the GI50 [16] was 1.47 µM (inactive).

`CC12CCC(C/C1=N\NC(N)=O)C2(C)C` (stereo unspecified) was tested, and the GI50 [1] was > 100 µM (inactive), the GI50 [2] was > 100 µM (inactive) and the GI50 [3] was > 100 µM (inactive). For the same compound, the GI50 [5] was > 100 µM (inactive), the GI50 [6] was > 100 µM (inactive) and the GI50 [7] was > 100 µM (inactive). The GI50 [17] was > 100 µM (inactive), the GI50 [8] was > 100 µM (inactive) and the GI50 [9] was > 100 µM (inactive). The GI50 [10] was > 100 µM, the GI50 [11] was > 100 µM (inactive) and the GI50 [18] was > 100 µM (inactive). For the same compound, the GI50 [19] was > 100 µM (inactive), the GI50 [12] was > 100 µM (inactive) and the GI50 [14] was > 100 µM (inactive). The GI50 [15] was > 100 µM (inactive) and the GI50 [16] was > 100 µM (inactive).

With `Oc1cc2c(cc1C(c1ccc3c(c1)OCO3)N1CCN(C(c3ccc4c(c3)OCO4)c3cc4c(cc3O)OCO4)CC1)OCO2` (stereo unspecified) the GI50 [1] was 31 µM (inactive), the GI50 [2] was 34 µM (inactive) and the GI50 [3] was 16.9 µM (inactive). For the same compound, the GI50 [5] was 35.2 µM (inactive), the GI50 [6] was 17.6 µM (inactive) and the GI50 [7] was 18 µM (inactive). For the same compound, the GI50 [17] was 21.7 µM (inactive), the GI50 [8] was 20.4 µM (inactive) and the GI50 [9] was 15.4 µM (inactive). For the same compound, the GI50 [10] was 7.98 µM, the GI50 [18] was 17.2 µM (inactive) and the GI50 [19] was 4.36 µM (inactive). For the same compound, the GI50 [12] was 11.9 µM (inactive), the GI50 [14] was 19.5 µM (inactive) and the GI50 [15] was 28.9 µM (inactive). For the same compound, the GI50 [16] was 15.6 µM (inactive).

`CCOC(=O)c1sc2nc(SC)nc(Nc3ccc4c(c3)OCO4)c2c1N` was tested, and the GI50 [1] was > 100 µM (inactive), the GI50 [2] was 68.9 µM (inactive) and the GI50 [3] was > 100 µM (inactive). The GI50 [4] was 28.4 µM (inactive), the GI50 [5] was 31.9 µM (inactive) and the GI50 [6] was > 100 µM (inactive). For the same compound, the GI50 [17] was 28.8 µM (inactive), the GI50 [8] was 54.7 µM (inactive) and the GI50 [9] was 32.9 µM (inactive). For the same compound, the GI50 [10] was 0.706 µM, the GI50 [11] was 53.8 µM (inactive) and the GI50 [18] was 39.5 µM (inactive). For the same compound, the GI50 [19] was 37.7 µM (inactive), the GI50 [13] was > 100 µM (inactive) and the GI50 [14] was 68.4 µM (inactive). For the same compound, the GI50 [15] was 37.8 µM (inactive) and the GI50 [16] was 29.6 µM (inactive).

For `NC(Cc1ccc(OCc2ccccc2)cn1)C(=O)O` (stereo unspecified), the GI50 [1] was > 100 µM (inactive), the GI50 [2] was > 100 µM (inactive) and the GI50 [3] was > 100 µM (inactive). For the same compound, the GI50 [4] was > 100 µM (inactive), the GI50 [5] was > 100 µM (inactive) and the GI50 [6] was > 100 µM (inactive). The GI50 [7] was > 100 µM (inactive), the GI50 [17] was > 100 µM (inactive) and the GI50 [8] was > 100 µM (inactive). The GI50 [9] was > 100 µM (inactive), the GI50 [10] was > 100 µM and the GI50 [11] was > 100 µM (inactive). For the same compound, the GI50 [12] was > 100 µM (inactive), the GI50 [13] was > 100 µM (inactive) and the GI50 [15] was > 100 µM (inactive). The GI50 [16] was > 100 µM (inactive).
